From patent US9371320B2, “Heterocyclic compound” (TAKEDA PHARMACEUTICAL COMPANY LIMITED, priority 2012, dated 2016)
Read-outs that look alike come from different tables or passages of the source.

Assays:
JAK1 = biological target: T1, JAK1 (Homo sapiens, UniProt P23458); assay: JAK1 enzyme inhibition test (LANCE method); format: biochemical; settings: for inhibition at 10 µM: read-out: Inhibitory rate (%) JAK1 10 μM; for inhibition at 1 µM: test compound 1 μM, read-out: Inhibitory rate (%) JAK1 1 μM
T1 construct: purchased Invitrogen
T1 sequence (P23458 whole entry): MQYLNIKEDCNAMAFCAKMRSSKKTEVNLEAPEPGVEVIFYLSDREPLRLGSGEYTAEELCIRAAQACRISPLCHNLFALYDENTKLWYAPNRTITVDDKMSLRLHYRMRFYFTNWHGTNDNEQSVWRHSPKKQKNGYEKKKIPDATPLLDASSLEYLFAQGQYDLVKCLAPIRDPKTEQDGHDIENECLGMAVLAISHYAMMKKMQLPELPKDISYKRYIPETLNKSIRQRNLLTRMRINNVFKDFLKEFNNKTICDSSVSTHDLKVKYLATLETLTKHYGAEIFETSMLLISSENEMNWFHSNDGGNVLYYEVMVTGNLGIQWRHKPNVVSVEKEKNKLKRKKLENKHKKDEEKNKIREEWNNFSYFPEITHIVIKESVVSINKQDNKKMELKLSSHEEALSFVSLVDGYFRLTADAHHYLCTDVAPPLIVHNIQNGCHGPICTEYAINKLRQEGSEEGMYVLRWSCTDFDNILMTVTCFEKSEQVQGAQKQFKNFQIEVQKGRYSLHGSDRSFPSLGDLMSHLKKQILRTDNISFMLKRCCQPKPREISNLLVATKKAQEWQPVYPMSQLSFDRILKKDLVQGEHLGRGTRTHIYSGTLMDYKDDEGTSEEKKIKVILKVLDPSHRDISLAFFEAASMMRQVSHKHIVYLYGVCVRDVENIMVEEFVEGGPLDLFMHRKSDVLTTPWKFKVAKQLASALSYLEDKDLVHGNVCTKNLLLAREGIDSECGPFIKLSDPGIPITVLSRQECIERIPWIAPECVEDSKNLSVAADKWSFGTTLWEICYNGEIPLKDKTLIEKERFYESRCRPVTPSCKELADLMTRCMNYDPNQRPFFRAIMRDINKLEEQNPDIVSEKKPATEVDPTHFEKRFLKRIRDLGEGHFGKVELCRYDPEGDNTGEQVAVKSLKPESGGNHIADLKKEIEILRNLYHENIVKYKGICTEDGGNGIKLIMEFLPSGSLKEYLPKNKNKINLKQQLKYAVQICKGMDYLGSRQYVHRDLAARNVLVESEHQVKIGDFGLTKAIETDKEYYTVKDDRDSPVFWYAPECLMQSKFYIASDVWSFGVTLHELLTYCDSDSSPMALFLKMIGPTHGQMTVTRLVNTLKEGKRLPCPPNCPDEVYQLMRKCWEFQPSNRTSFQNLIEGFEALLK
Method in brief: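 Reactions ran 1 h at room temperature in HEPES pH 7.5/MgCl2 buffer, with ATP solution at 150 μM and JAK1 and ULight peptide solutions at 187.5 ng/mL and 300 nM. Reactions were stopped with EDTA, and phosphorylation was read by Eu antibody time-resolved fluorescence at 665 nm. Inhibition was scaled to a no-enzyme control as 100%.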

Tyk2 = biological target: T2, Tyk2 (Homo sapiens, UniProt P29597); assay: Tyk2 enzyme inhibition test (LANCE method); format: biochemical; settings: for inhibition at 1 µM: read-out: Inhibitory rate (%) Tyk2 1 μM
T2 construct: purchased Invitrogen
T2 sequence (P29597 whole entry): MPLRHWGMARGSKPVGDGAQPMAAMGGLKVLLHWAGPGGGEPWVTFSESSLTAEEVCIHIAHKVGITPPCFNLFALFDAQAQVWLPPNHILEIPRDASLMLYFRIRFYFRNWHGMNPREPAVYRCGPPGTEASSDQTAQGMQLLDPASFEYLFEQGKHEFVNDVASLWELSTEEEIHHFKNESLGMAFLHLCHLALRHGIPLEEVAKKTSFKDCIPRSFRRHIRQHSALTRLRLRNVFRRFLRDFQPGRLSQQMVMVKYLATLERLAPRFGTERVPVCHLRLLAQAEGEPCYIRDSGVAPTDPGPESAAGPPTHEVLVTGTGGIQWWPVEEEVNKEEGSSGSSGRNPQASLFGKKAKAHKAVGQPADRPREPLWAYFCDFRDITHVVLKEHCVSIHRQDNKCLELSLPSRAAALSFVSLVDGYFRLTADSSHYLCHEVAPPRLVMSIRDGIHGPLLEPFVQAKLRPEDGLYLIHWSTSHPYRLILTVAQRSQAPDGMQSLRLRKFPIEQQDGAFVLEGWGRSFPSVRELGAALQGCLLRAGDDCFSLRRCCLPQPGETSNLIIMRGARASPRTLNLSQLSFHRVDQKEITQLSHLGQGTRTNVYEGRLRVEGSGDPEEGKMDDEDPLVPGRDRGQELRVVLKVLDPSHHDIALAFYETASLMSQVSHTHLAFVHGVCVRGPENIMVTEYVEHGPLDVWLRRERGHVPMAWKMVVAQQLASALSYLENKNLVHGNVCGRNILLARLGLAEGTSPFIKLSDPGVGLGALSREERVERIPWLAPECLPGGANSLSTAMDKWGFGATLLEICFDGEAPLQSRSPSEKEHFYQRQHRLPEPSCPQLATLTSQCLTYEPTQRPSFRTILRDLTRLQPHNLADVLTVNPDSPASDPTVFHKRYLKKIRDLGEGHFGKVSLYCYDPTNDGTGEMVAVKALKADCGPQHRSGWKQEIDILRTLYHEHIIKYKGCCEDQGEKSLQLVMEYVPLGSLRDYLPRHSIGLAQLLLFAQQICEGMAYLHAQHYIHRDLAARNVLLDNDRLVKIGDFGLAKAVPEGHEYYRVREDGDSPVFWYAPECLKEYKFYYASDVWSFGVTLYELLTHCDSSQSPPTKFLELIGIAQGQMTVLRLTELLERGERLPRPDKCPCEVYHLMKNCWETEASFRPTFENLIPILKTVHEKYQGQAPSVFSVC
Method in brief: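 LANCE TR-FRET read-out (ex 340/em 665 nm, 100 μs delay) of ULight-JAK1 phosphorylation, with no-enzyme wells as 100% inhibition. Reaction run 1 h at room temperature in pH 7.5 HEPES buffer; enzyme 375 ng/mL, substrate 300 nM and ATP 30 μM are solution concentrations before mixing.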

[1] = test compound 10 μM (Ex. 182-220), beside Tyk2 1 μM

An inhibition at 10 µM (JAK1; [1]) of 81% and an inhibition at 1 µM (Tyk2; test compound 1 μM) of 100% were found for `O=c1[nH]cc(Cl)c2c1c(-c1csc(CN3CCOCC3)c1)nn2-c1c(F)cccc1F` [Example 203, 7-chloro-1-(2,6-difluorophenyl)-3-(5-(morpholin-4-ylmethyl)-3-thienyl)-1,5-dihydro-4H-pyrazolo[4,3-c]pyridin-4-one] in this work.
An inhibition at 10 µM (JAK1; [1]) of 98% and an inhibition at 1 µM (Tyk2; test compound 1 μM) of 98% were found for `O=c1[nH]ccc2c1c(-c1cn[nH]c1)nn2C1CCCC1` [Example 204, 1-cyclopentyl-3-(1H-pyrazol-4-yl)-1,5-dihydro-4H-pyrazolo[4,3-c]pyridin-4-one] in this work.
An inhibition at 10 µM (JAK1; [1]) of 34% and an inhibition at 1 µM (Tyk2; test compound 1 μM) of 97% were found for `O=c1[nH]cc(Cl)c2c1c(-c1cnn(C3CCOCC3)c1)nn2-c1c(F)cccc1F` [Example 205, 7-chloro-1-(2,6-difluorophenyl)-3-(1-(tetrahydro-2H-pyran-4-yl)-1H-pyrazol-4-yl)-1,5-dihydro-4H-pyrazolo[4,3-c]pyridin-4-one] in this work.
An inhibition at 10 µM (JAK1; [1]) of 45% and an inhibition at 1 µM (Tyk2; test compound 1 μM) of 100% were found for `O=c1[nH]cc(Cl)c2c1c(-c1ccc(N3CCOCC3)c(F)c1)nn2-c1c(F)cccc1F` [Example 206, 7-chloro-1-(2,6-difluorophenyl)-3-(3-fluoro-4-(morpholin-4-yl)phenyl)-1,5-dihydro-4H-pyrazolo[4,3-c]pyridin-4-one] in this work.
An inhibition at 10 µM (JAK1; [1]) of 73% and an inhibition at 1 µM (Tyk2; test compound 1 μM) of 100% were found for `O=c1[nH]cc(Cl)c2c1c(-c1ccc(N3CCCOCC3)cc1)nn2-c1c(F)cccc1F` [Example 207, 7-chloro-1-(2,6-difluorophenyl)-3-(4-(1,4-oxazepan-4-yl)phenyl)-1,5-dihydro-4H-pyrazolo[4,3-c]pyridin-4-one] in this work.
An inhibition at 10 µM (JAK1; test compound 10 μM) of 28% and an inhibition at 10 µM (Tyk2; test compound 10 μM, read-out: Inhibitory rate (%) Tyk2 10 μM) of 83% were found for `O=c1[nH]cc(Cl)c2c1c(C1CC1)nn2-c1c(F)cccc1F` [Example 208, 7-chloro-3-cyclopropyl-1-(2,6-difluorophenyl)-1,5-dihydro-4H-pyrazolo[4,3-c]pyridin-4-one] in this work.
An inhibition at 10 µM (JAK1; [1]) of 99% and an inhibition at 1 µM (Tyk2; test compound 1 μM) of 99% were found for `CCC1(O)CCC(n2nc(-c3ccc(S(N)(=O)=O)cc3)c3c(=O)[nH]ccc32)CC1` (centres unmarked) [Example 209, 4-(1-(4-ethyl-4-hydroxycyclohexyl)-4-oxo-4,5-dihydro-1H-pyrazolo[4,3-c]pyridin-3-yl)benzenesulfonamide] in this work.
For `CCC1(O)CCC(n2nc(-c3ccc(S(N)(=O)=O)cc3)c3c(=O)[nH]ccc32)CC1` (centres unmarked) [Example 210, 4-(1-(4-ethyl-4-hydroxycyclohexyl)-4-oxo-4,5-dihydro-1H-pyrazolo[4,3-c]pyridin-3-yl)benzenesulfonamide], the “Inhibitory rate (%) JAK1 10 μM” value (JAK1; [1]) was 99% and the “Inhibitory rate (%) Tyk2 1 μM” value (Tyk2; test compound 1 μM) was 97%.
An inhibition at 10 µM (JAK1; [1]) of 99% and an inhibition at 1 µM (Tyk2; test compound 1 μM) of 98% were found for `Cc1ccccc1-n1nc(-c2ccc(S(N)(=O)=O)cc2)c2c(=O)[nH]ccc21` [Example 211, 4-(1-(2-methylphenyl)-4-oxo-4,5-dihydro-1H-pyrazolo[4,3-c]pyridin-3-yl)benzenesulfonamide] in this work.
An inhibition at 10 µM (JAK1; [1]) of 99% and an inhibition at 1 µM (Tyk2; test compound 1 μM) of 96% were found for `NS(=O)(=O)c1ccc(-c2nn(-c3ccccc3C(F)(F)F)c3cc[nH]c(=O)c23)cc1` [Example 212, 4-(4-oxo-1-(2-(trifluoromethyl)phenyl)-4,5-dihydro-1H-pyrazolo[4,3-c]pyridin-3-yl)benzenesulfonamide] in this work.
An inhibition at 10 µM (JAK1; [1]) of 98% and an inhibition at 1 µM (Tyk2; test compound 1 μM) of 99% were found for `NS(=O)(=O)c1ccc(-c2nn(-c3ccccc3F)c3cc[nH]c(=O)c23)cc1` [Example 213, 4-(1-(2-fluorophenyl)-4-oxo-4,5-dihydro-1H-pyrazolo[4,3-c]pyridin-3-yl)benzenesulfonamide] in this work.
An inhibition at 10 µM (JAK1; [1]) of 99% and an inhibition at 1 µM (Tyk2; test compound 1 μM) of 99% were found for `NS(=O)(=O)c1ccc(-c2nn(-c3ccccc3Cl)c3cc[nH]c(=O)c23)cc1` [Example 214, 4-(1-(2-chlorophenyl)-4-oxo-4,5-dihydro-1H-pyrazolo[4,3-c]pyridin-3-yl)benzenesulfonamide] in this work.
An inhibition at 10 µM (JAK1; [1]) of 22% and an inhibition at 1 µM (Tyk2; test compound 1 μM) of 94% were found for `NC(=O)c1ccc(-c2nn(-c3c(F)cccc3F)c3c(Cl)c[nH]c(=O)c23)cc1F` [Example 215, 4-(7-chloro-1-(2,6-difluorophenyl)-4-oxo-4,5-dihydro-1H-pyrazolo[4,3-c]pyridin-3-yl)-2-fluorobenzamide] in this work.
An inhibition at 10 µM (JAK1; [1]) of 27% and an inhibition at 1 µM (Tyk2; test compound 1 μM) of 97% were found for `CNC(=O)c1ccc(-c2nn(-c3c(F)cccc3F)c3c(Cl)c[nH]c(=O)c23)cc1F` [Example 216, 4-(7-chloro-1-(2,6-difluorophenyl)-4-oxo-4,5-dihydro-1H-pyrazolo[4,3-c]pyridin-3-yl)-2-fluoro-N-methylbenzamide] in this work.
An inhibition at 10 µM (JAK1; [1]) of 74% and an inhibition at 1 µM (Tyk2; test compound 1 μM) of 99% were found for `COCCNC(=O)COc1ccc(-c2nn(-c3c(F)cccc3F)c3c(Cl)c[nH]c(=O)c23)cc1` [Example 217, 2-(4-(7-chloro-1-(2,6-difluorophenyl)-4-oxo-4,5-dihydro-1H-pyrazolo[4,3-c]pyridin-3-yl)phenoxy)-N-(2-methoxyethyl)acetamide] in this work.
An inhibition at 10 µM (JAK1; [1]) of 85% and an inhibition at 1 µM (Tyk2; test compound 1 μM) of 99% were found for `O=c1[nH]cc(Br)c2c1c(-c1ccc(N3CCOCC3)cc1)nn2-c1c(F)cccc1F` [Example 218, 7-bromo-1-(2,6-difluorophenyl)-3-(4-(morpholin-4-yl)phenyl)-1,5-dihydro-4H-pyrazolo[4,3-c]pyridin-4-one] in this work.
An inhibition at 10 µM (JAK1; [1]) of 82% and an inhibition at 1 µM (Tyk2; test compound 1 μM) of 98% were found for `O=C1CCC(=O)N1Cc1ccc(-c2nn(-c3c(F)cccc3F)c3c(Cl)c[nH]c(=O)c23)cc1` [Example 219, 1-(4-(7-chloro-1-(2,6-difluorophenyl)-4-oxo-4,5-dihydro-1H-pyrazolo[4,3-c]pyridin-3-yl)benzyl)pyrrolidine-2,5-dione] in this work.
An inhibition at 10 µM (JAK1; [1]) of 98% and an inhibition at 1 µM (Tyk2; test compound 1 μM) of 100% were found for `O=C1CCCN1Cc1cc(-c2nn(-c3c(F)cccc3F)c3c(Cl)c[nH]c(=O)c23)cs1` [Example 220, 7-chloro-1-(2,6-difluorophenyl)-3-(5-((2-oxopyrrolidin-1-yl)methyl)-3-thienyl)-1,5-dihydro-4H-pyrazolo[4,3-c]pyridin-4-one] in this work.
An inhibition at 1 µM (JAK1) of 80% and an inhibition at 1 µM (Tyk2; test compound 1 μM) of 99% were found for `CNC(=O)COc1ccc(-c2nn(-c3c(F)cccc3F)c3c(Cl)c[nH]c(=O)c23)cc1` [Example 221, 2-(4-(7-chloro-1-(2,6-difluorophenyl)-4-oxo-4,5-dihydro-1H-pyrazolo[4,3-c]pyridin-3-yl)phenoxy)-N-methylacetamide] in this work.
An inhibition at 1 µM (JAK1) of 69% and an inhibition at 1 µM (Tyk2; test compound 1 μM) of 98% were found for `CCNC(=O)n1cc(-c2nn(-c3c(F)cccc3F)c3c(Cl)c[nH]c(=O)c23)cn1` [Example 222, 4-(7-chloro-1-(2,6-difluorophenyl)-4-oxo-4,5-dihydro-1H-pyrazolo[4,3-c]pyridin-3-yl)-N-ethyl-1H-pyrazole-1-carboxamide] in this work.
An inhibition at 1 µM (JAK1) of 99% and an inhibition at 1 µM (Tyk2; test compound 1 μM) of 97% were found for `CNS(=O)(=O)c1ccc(-c2nn(C3CCCC3)c3cc[nH]c(=O)c23)cc1` [Example 223, 4-(1-cyclopentyl-4-oxo-4,5-dihydro-1H-pyrazolo[4,3-c]pyridin-3-yl)-N-methylbenzenesulfonamide] in this work.
An inhibition at 1 µM (JAK1) of 78% and an inhibition at 1 µM (Tyk2; test compound 1 μM) of 99% were found for `O=C1CCCN1Cc1ccc(-c2nn(-c3c(F)cccc3F)c3c(Cl)c[nH]c(=O)c23)cc1` [Example 224, 7-chloro-1-(2,6-difluorophenyl)-3-(4-((2-oxopyrrolidin-1-yl)methyl)phenyl)-1,5-dihydro-4H-pyrazolo[4,3-c]pyridin-4-one] in this work.
An inhibition at 1 µM (JAK1) of 58% and an inhibition at 1 µM (Tyk2; test compound 1 μM) of 99% were found for `O=C1NCCN1c1ccc(-c2nn(-c3c(F)cccc3F)c3c(Cl)c[nH]c(=O)c23)cc1` [Example 225, 7-chloro-1-(2,6-difluorophenyl)-3-(4-(2-oxoimidazolidin-1-yl)phenyl)-1,5-dihydro-4H-pyrazolo[4,3-c]pyridin-4-one] in this work.
An inhibition at 1 µM (JAK1) of 40% and an inhibition at 1 µM (Tyk2; test compound 1 μM) of 98% were found for `Cn1cnc2cc(-c3nn(-c4c(F)cccc4F)c4c(Cl)c[nH]c(=O)c34)ccc21` [Example 226, 7-chloro-1-(2,6-difluorophenyl)-3-(1-methyl-1H-benzimidazol-5-yl)-1,5-dihydro-4H-pyrazolo[4,3-c]pyridin-4-one] in this work.
An inhibition at 1 µM (JAK1) of 54% and an inhibition at 1 µM (Tyk2; test compound 1 μM) of 97% were found for `O=C1Cc2ccc(-c3nn(-c4c(F)cccc4F)c4c(Cl)c[nH]c(=O)c34)cc2N1` [Example 227, 7-chloro-1-(2,6-difluorophenyl)-3-(2-oxo-2,3-dihydro-1H-indol-6-yl)-1,5-dihydro-4H-pyrazolo[4,3-c]pyridin-4-one] in this work.
An inhibition at 1 µM (JAK1) of 85% and an inhibition at 1 µM (Tyk2; test compound 1 μM) of 99% were found for `N#Cc1c[nH]c(=O)c2c(-c3cn[nH]c3)nn(-c3c(F)cccc3F)c12` [Example 228, 1-(2,6-difluorophenyl)-4-oxo-3-(1H-pyrazol-4-yl)-4,5-dihydro-1H-pyrazolo[4,3-c]pyridine-7-carbonitrile] in this work.
An inhibition at 1 µM (JAK1) of 81% and an inhibition at 1 µM (Tyk2; test compound 1 μM) of 98% were found for `N#Cc1c[nH]c(=O)c2c(-c3ccc(N4CCOCC4)cc3)nn(-c3c(F)cccc3F)c12` [Example 229, 1-(2,6-difluorophenyl)-3-(4-(morpholin-4-yl)phenyl)-4-oxo-4,5-dihydro-1H-pyrazolo[4,3-c]pyridine-7-carbonitrile] in this work.
An inhibition at 1 µM (JAK1) of 92% and an inhibition at 1 µM (Tyk2; test compound 1 μM) of 99% were found for `NC(=O)c1ccc(-c2nn(-c3c(F)cccc3F)c3cc[nH]c(=O)c23)cc1` [Example 230, 4-(1-(2,6-difluorophenyl)-4-oxo-4,5-dihydro-1H-pyrazolo[4,3-c]pyridin-3-yl)benzamide] in this work.
